The values that follow come from US8476265B2, “Compounds-801” (AstraZeneca AB, priority 2010, dated 2013).

The IC50 is the point on the concentration scale where inhibition reaches its midpoint.

The target in one experiment is T1, Adrenergic β2 (Homo sapiens, UniProt P07550).
T1 construct: Adherent H292 cells are removed from tissue culture flasks by treatment with Accutase™ cell detachment solution; endogenous in cells; host or cells: H292 cells
The experiment in a line: Adrenergic β2 mediated cAMP production in H292 cells (AlphaScreen), concentration response. In kind it is cell-based. The note with it: for EC50: 60 min, 300 μM rolipram, read-out: β2 pEC50 (converted); for β2 Intrinsic Activity: fraction relative to the maximum activity determined for formoterol. On the procedure: Assay for Adrenergic 132 Mediated cAMP Production
H292 cells are grown in 225 cm2 flasks incubator at 37° C., 5% CO2 in RPMI medium containing 10% (v/v) FBS (foetal bovine serum) and 2 mM L-glutamine.
Adherent H292 cells re removed from tissue culture flasks by treatment with Accutase™ cell detachment solution for 15 minutes. Flasks are incubated for 15 minutes in a humidified incubator at 37° C., 5% CO2. Detached cells are re-suspended in RPMI media (containing 10% (v/v) FBS and 2 mM L-glutamine) at 0.1×10^6 cells per mL. 10000 cells in 100 μl, are added to each well of a tissue-culture-treated 96-well plate and the cells incubated overnight in a humidified incubator at 37° C., 5% CO2. The culture media is removed and cells are washed twice with 100 μL assay buffer and replaced with 50 μl assay buffer (HBSS solution containing 10 mM HEPES pH7.4 and 5 mM glucose). Cells are rested at room temperature for 20 minutes after which time 25 μl of rolipram (1.2 mM made up in assay buffer containing 2.4% (v/v) dimethylsulphoxide) is added. Cells are incubated with rolipram for 10 minutes after which time test compounds are added and the cells are incubated for 60 minutes at room temperature. The final rolipram concentration in the assay is 300 μM and final vehicle concentration is 1% (v/v) dimethylsulphoxide. The reaction is stopped by removing supernatants, washing once with 100 μL assay buffer and replacing with 50 μL lysis buffer. The cell monolayer is frozen at −80° C. for 30 minutes (or overnight).
AlphaScreen™ cAMP detection
The concentration of cAMP (cyclic adenosine monophosphate) in the cell lysate is determined using AlphaScreen™ methodology. The frozen cell plate is thawed for 20 minutes on a plate shaker then 10 μL of the cell lysate is transferred to a 96-well white plate. 40 μL of mixed AlphaScreen™ detection beads pre-incubated with biotinylated cAMP, is added to each well and the plate incubated at room temperature for 3 hours in the dark. The AlphaScreen™ signal is measured using an EnVision spectrophotometer (Perkin-Elmer Inc.) with the recommended manufacturer's settings. cAMP concentrations are determined by reference to a calibration curve determined in the same experiment using standard cAMP concentrations. Concentration response curves for agonists are constructed and data is fitted to a four parameter logistic equation to determine both the pEC50 and Intrinsic Activity. Intrinsic Activity is expressed as a fraction relative to the maximum activity determined for formoterol in each experiment.
A general note: Cyclic AMP is a second messenger, typically raised through Gs and lowered through Gi signalling.

Experiment [1] deals with T2, human muscarinic acetylcholine M3 receptor (Homo sapiens, UniProt P20309).
T2 construct: expressed in transfected cells; host or cells: CHO-K1 (Chinese Hamster Ovary) cell membranes
T2 sequence (P20309 whole entry): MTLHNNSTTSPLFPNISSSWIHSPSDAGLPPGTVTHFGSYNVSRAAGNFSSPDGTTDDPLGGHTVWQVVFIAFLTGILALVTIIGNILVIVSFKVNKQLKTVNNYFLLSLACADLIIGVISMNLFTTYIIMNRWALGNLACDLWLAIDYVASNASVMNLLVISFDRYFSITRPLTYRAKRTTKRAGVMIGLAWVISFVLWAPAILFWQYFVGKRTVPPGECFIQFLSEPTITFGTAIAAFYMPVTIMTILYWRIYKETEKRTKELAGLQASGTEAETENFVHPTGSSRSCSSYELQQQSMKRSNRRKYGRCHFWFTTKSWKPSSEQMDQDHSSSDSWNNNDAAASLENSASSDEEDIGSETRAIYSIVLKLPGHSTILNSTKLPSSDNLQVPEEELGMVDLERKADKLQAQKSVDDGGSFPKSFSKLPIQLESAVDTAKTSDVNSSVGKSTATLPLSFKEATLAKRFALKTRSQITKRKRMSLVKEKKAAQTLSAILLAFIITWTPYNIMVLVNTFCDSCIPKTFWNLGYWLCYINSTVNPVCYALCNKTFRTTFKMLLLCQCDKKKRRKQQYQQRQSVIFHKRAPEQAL
The experiment in a line: Muscarinic 3 receptor binding assay ([3H]NMS competition, SPA), pIC50. The note with it: [3H]NMS 0.1 nM, CHO-K1 cell membranes expressing human M3 receptor. Here is the method: Muscarinic 3 Receptor Binding Assay
The affinity (pIC50) of compounds binding to the M3 receptor is determined by competition binding of [^3H]N-methyl scopolamine (NMS) to CHO-K1 (Chinese Hamster Ovary) cell membranes expressing the human muscarinic acetylcholine M3 receptor (M3-ACh) in a scintillation proximity assay (SPA) format.
SPA beads are precoated with membranes and then incubated at 2 mg of beads per well with serial dilutions of compounds of the invention, [^3H]NMS at 0.1 nM, quarter Kd (experimentally determined dissociation constant) and assay buffer (20 mM HEPES pH 7.4 containing 5 mM MgCl2 and 0.1% (w/v) bovine serum albumin). The assay is conducted in a final volume of 200 μL, in the presence of 1% (v/v) dimethyl sulphoxide (DMSO). Total binding of [^3H]NMS is determined in the absence of competing compound and non-specific binding of [^3H]NMS is determined in the presence of 1 μM atropine. The plates are incubated for 16 hours at room temperature and then read on Wallac Microbeta™ using a normalised ^3H protocol. The pIC50, defined as the negative logarithm of the molar concentration of compound required for 50% reduction in specific [^3H]-NMS binding, is determined.

T1 sequence (P07550 whole entry): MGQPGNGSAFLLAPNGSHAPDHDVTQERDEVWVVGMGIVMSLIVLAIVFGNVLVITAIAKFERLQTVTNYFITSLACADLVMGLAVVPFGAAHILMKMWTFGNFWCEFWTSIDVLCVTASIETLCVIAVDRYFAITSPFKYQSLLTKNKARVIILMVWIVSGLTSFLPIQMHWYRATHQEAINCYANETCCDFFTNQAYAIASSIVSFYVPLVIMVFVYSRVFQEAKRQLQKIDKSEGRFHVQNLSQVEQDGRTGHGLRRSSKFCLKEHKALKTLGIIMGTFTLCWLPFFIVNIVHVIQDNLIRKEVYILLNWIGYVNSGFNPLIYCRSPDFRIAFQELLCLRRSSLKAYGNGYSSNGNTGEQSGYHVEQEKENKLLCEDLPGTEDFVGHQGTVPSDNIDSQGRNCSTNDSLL

On to `CC(C)c1nc(C(=O)N2CCOC3(CCN(Cc4cccc(CCOCCC(=O)N(CCNCCc5ccc(O)c6c5OCC(=O)N6)[C@H](C)C(C)C)c4F)CC3)C2)cs1` [Example 12, R)-3-(2-Fluoro-3-((4-(2-isopropylthiazole-4-carbonyl)-1-oxa-4,9-diazaspiro[5.5]undecan-9-yl)methyl)phenethoxy)-N-(2-(2-(5-hydroxy-3-oxo-3,4-dihydro-2H-benzo[b][1,4]oxazin-8-yl)ethylamino)ethyl)-N-(3-methylbutan-2-yl)propanamide ditrifluoroacetate], for which, at Adrenergic β2, the EC50 was 39.8 nM and the “β2 Intrinsic Activity” value stood at 1.0. In experiment [1], this compound showed an IC50 of 0.501 nM.

For `CC(C)c1nc(C(=O)N2CCOC3(CCN(Cc4cccc(CCOCCC(=O)N(C)CCNCCc5ccc(O)c6[nH]c(=O)sc56)c4F)CC3)C2)cs1` [Example 13, 3-(2-Fluoro-3-((4-(2-isopropylthiazole-4-carbonyl)-1-oxa-4,9-diazaspiro[5.5]undecan-9-yl)methyl)phenethoxy)-N-(2-(2-(4-hydroxy-2-oxo-2,3-dihydrobenzo[d]thiazol-7-yl)ethylamino)ethyl)-N-methylpropanamide ditrifluoroacetate], at Adrenergic β2, the EC50 was 25.1 nM and the “β2 Intrinsic Activity” value is given as 0.8. For the same compound, the IC50 in experiment [1] is 0.631 nM.

For `CC(C)c1nc(C(=O)N2CCOC3(CCN(Cc4cccc(CCOCCC(=O)N(CCNCCc5ccc(O)c6c5OCC(=O)N6)[C@H](C)c5ccccc5)c4F)CC3)C2)cs1` [Example 14, (R)-3-(2-Fluoro-3-((4-(2-isopropylthiazole-4-carbonyl)-1-oxa-4,9-diazaspiro[5.5]undecan-9-yl)methyl)phenethoxy)-N-(2-(2-(5-hydroxy-3-oxo-3,4-dihydro-2H-benzo[b][1,4]oxazin-8-yl)ethylamino)ethyl)-N-(1-phenylethyl)propanamide ditrifluoroacetate], at Adrenergic β2, the EC50 was 50.1 nM and the “β2 Intrinsic Activity” value was determined as 1.0. The compound also showed an IC50 in experiment [1] of 0.398 nM.

Consider `CCN(CCNCCc1ccc(O)c2c1OCC(=O)N2)C(=O)CCOCCc1cccc(CN2CCC3(CC2)CN(C(=O)c2csc(C(C)C)n2)CCO3)c1F` [Example 15, N-Ethyl-3-(2-fluoro-3-((4-(2-isopropylthiazole-4-carbonyl)-1-oxa-4,9-diazaspiro[5.5]undecan-9-yl)methyl)phenethoxy)-N-(2-(2-(5-hydroxy-3-oxo-3,4-dihydro-2H-benzo[b][1,4]oxazin-8-yl)ethylamino)ethyl)propanamide ditrifluoroacetate], for which, on Adrenergic β2, the EC50 is 31.6 nM and the “β2 Intrinsic Activity” value is 0.7. The IC50 in experiment [1] is 0.398 nM.

For the compound `CC(C)c1nc(C(=O)N2CCOC3(CCN(Cc4cccc(CCOCCC(=O)N(CCNCCc5ccc(O)c6c5OCC(=O)N6)C(C)C)c4F)CC3)C2)cs1` [Example 16, 3-(2-Fluoro-3-((4-(2-isopropylthiazole-4-carbonyl)-1-oxa-4,9-diazaspiro[5.5]undecan-9-yl)methyl)phenethoxy)-N-(2-(2-(5-hydroxy-3-oxo-3,4-dihydro-2H-benzo[b][1,4]oxazin-8-yl)ethylamino)ethyl)-N-isopropylpropanamide ditrifluoroacetate], at Adrenergic β2, the EC50 was 200 nM and the “β2 Intrinsic Activity” value worked out at 0.8. Besides, the IC50 in experiment [1] is 0.251 nM.

Take `CC(C)c1nc(C(=O)N2CCOC3(CCN(Cc4cccc(CCOCCC(=O)N(CCNCCc5ccc(O)c6c5OCC(=O)N6)CCC(C)(C)C)c4F)CC3)C2)cs1` [Example 17, N-(3,3-Dimethylbutyl)-3-(2-fluoro-3-((4-(2-isopropylthiazole-4-carbonyl)-1-oxa-4,9-diazaspiro[5.5]undecan-9-yl)methyl)phenethoxy)-N-(2-(2-(5-hydroxy-3-oxo-3,4-dihydro-2H-benzo[b][1,4]oxazin-8-yl)ethylamino)ethyl)propanamide ditrifluoroacetate]: on Adrenergic β2, the EC50 is 50.1 nM and the “β2 Intrinsic Activity” value worked out at 1.0. The compound also gave an IC50 in experiment [1] of 0.316 nM.

Regarding `CCCC[C@@H](C)N(CCNCCc1ccc(O)c2c1OCC(=O)N2)C(=O)CCOCCc1cccc(CN2CCC3(CC2)CN(C(=O)c2csc(C(C)C)n2)CCO3)c1F` [Example 18, (R)-3-(2-Fluoro-3-((4-(2-isopropylthiazole-4-carbonyl)-1-oxa-4,9-diazaspiro[5.5]undecan-9-yl)methyl)phenethoxy)-N-(hexan-2-yl)-N-(2-(2-(5-hydroxy-3-oxo-3,4-dihydro-2H-benzo[b][1,4]oxazin-8-yl)ethylamino)ethyl)propanamide ditrifluoroacetate], at Adrenergic β2, the EC50 is 20 nM and the “β2 Intrinsic Activity” value came out at 1.0. The same compound gave an IC50 in experiment [1] of 0.398 nM.

With `CC(C)c1nc(C(=O)N2CCOC3(CCN(Cc4cccc(CCOCCC(=O)N(CCNCCc5ccc(O)c6c5OCC(=O)N6)[C@H](C)C(C)(C)C)c4F)CC3)C2)cs1` [Example 19, (R)—N-(3,3-Dimethylbutan-2-yl)-3-(2-fluoro-3-((4-(2-isopropylthiazole-4-carbonyl)-1-oxa-4,9-diazaspiro[5.5]undecan-9-yl)methyl)phenethoxy)-N-(2-(2-(5-hydroxy-3-oxo-3,4-dihydro-2H-benzo[b][1,4]oxazin-8-yl)ethylamino)ethyl)propanamide ditrifluoroacetate], at Adrenergic β2, the EC50 is 50.1 nM and the “β2 Intrinsic Activity” value is on record as 0.9. For the same compound, in experiment [1], the IC50 is 0.631 nM.

Turning to `CC(C)c1nc(C(=O)N2CCOC3(CCN(Cc4cccc(CCOCCC(=O)N(CCNCCc5ccc(O)c6c5OCC(=O)N6)CCC(F)(F)F)c4F)CC3)C2)cs1` [Example 20, 3-(2-Fluoro-3-((4-(2-isopropylthiazole-4-carbonyl)-1-oxa-4,9-diazaspiro[5.5]undecan-9-yl)methyl)phenethoxy)-N-(2-(2-(5-hydroxy-3-oxo-3,4-dihydro-2H-benzo[b][1,4]oxazin-8-yl)ethylamino)ethyl)-N-(3,3,3-trifluoropropyl)propanamide ditrifluoroacetate], on Adrenergic β2, the EC50 was 79.4 nM and the “β2 Intrinsic Activity” value came to 1.1. In experiment [1], this compound had an IC50 of 0.2 nM.

As to `Cc1ccccc1CN(CCNCCc1ccc(O)c2c1OCC(=O)N2)C(=O)CCOCCc1cccc(CN2CCC3(CC2)CN(C(=O)c2csc(C(C)C)n2)CCO3)c1F` [Example 21, 3-(2-Fluoro-3-((4-(2-isopropylthiazole-4-carbonyl)-1-oxa-4,9-diazaspiro[5.5]undecan-9-yl)methyl)phenethoxy)-N-(2-(2-(5-hydroxy-3-oxo-3,4-dihydro-2H-benzo[1)][1,4]oxazin-8-yl)ethylamino)ethyl)-N-(2-methylbenzyl)propanamide ditrifluoroacetate], at Adrenergic β2, the EC50 was 63.1 nM and the “β2 Intrinsic Activity” value was found to be 1.1. Besides, the IC50 in experiment [1] was 0.316 nM.

For the compound `Cc1ccc(CN(CCNCCc2ccc(O)c3c2OCC(=O)N3)C(=O)CCOCCc2cccc(CN3CCC4(CC3)CN(C(=O)c3csc(C(C)C)n3)CCO4)c2F)cc1` [Example 22, 3-(2-Fluoro-3-(4-(2-isopropylthiazole-4-carbonyl)-1-oxa-4,9-diazaspiro[5.5]undecan-9-yl)methyl)phenethoxy)-N-(2-(2-(5-hydroxy-3-oxo-3,4-dihydro-2H-benzo[b][1,4]oxazin-8-yl)ethylamino)ethyl)-N-(4-methylbenzyl)propanamide ditrifluoroacetate], at Adrenergic β2, the EC50 is 79.4 nM and the “β2 Intrinsic Activity” value came out at 1.2. Besides, the IC50 in experiment [1] was 0.251 nM.
